In patent publication US20260285850A1, “SUBSTITUTED OXAZOLIDINONES AND IMIDAZOLINONES AS HERBICIDES” (FMC CORPORATION, priority 2023, published 2026):

What was measured:
Assay type in all cases: in vivo
corn (Zea mays) [1] = assay: Test A postemergence application, visual injury rating 0-100; details: Postemergence
Outline: (§1)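 Compound in a non-phytotoxic, surfactant-containing solvent is applied either as a directed soil spray before seedlings emerge or onto emerged plants 2-10 cm tall; pots hold a loam-sand blend. Plants grow 10 days under greenhouse conditions and are rated by eye against untreated controls (0 no effect, 100 complete control).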

[2] = tested on: ryegrass, Italian (italian ryegrass, Lolium multiflorum); assay: as above; details: Postemergence
Outline: as §1

[3] = tested on: wheat (Triticum aestivum); assay: as above; details: Postemergence
Outline: as §1

[4] = tested on: galium (catchweed bedstraw, Galium aparine); assay: as above; details: Postemergence
Outline: as §1

[5] = tested on: ragweed (common ragweed, Ambrosia artemisiifolia); assay: as above; details: Postemergence
Outline: as §1

[6] = tested on: barnyardgrass (Echinochloa crus-galli); assay: as above; details: Postemergence
Outline: as §1

[7] = tested on: palmer (palmer amaranth, palmer pigweed, Amaranthus palmeri); assay: as above; details: Postemergence
Outline: as §1

[8] = tested on: oat, wild (wild oat, Avena fatua); assay: as above; details: Postemergence
Outline: as §1

[9] = tested on: horseweed (Erigeron canadensis); assay: as above; details: Postemergence
Outline: as §1

soybean (Glycine max) [10] = assay: as above; details: Postemergence
Outline: as §1

[11] = tested on: blackgrass (Alopecurus myosuroides); assay: as above; details: Postemergence
Outline: as §1

kochia (Bassia scoparia) [12] = assay: as above; details: Postemergence
Outline: as §1

[13] = tested on: green foxtail (Setaria viridis); assay: as above; details: Postemergence
Outline: as §1

corn (Zea mays) [14] = assay: Test A preemergence soil spray, visual injury rating 0-100; details: 10 days, 0 = no effect, 100 = complete control
Outline: as §1

[15] = tested on: ryegrass, Italian (italian ryegrass, Lolium multiflorum); assay: as above; details: 10 days, 0 = no effect, 100 = complete control
Outline: as §1

[16] = tested on: wheat (Triticum aestivum); assay: as above; details: 10 days, 0 = no effect, 100 = complete control
Outline: as §1

[17] = tested on: ragweed (common ragweed, Ambrosia artemisiifolia); assay: as above; details: 10 days, 0 = no effect, 100 = complete control
Outline: as §1

[18] = tested on: barnyardgrass (Echinochloa crus-galli); assay: as above; details: 10 days, 0 = no effect, 100 = complete control
Outline: as §1

[19] = tested on: palmer (palmer amaranth, palmer pigweed, Amaranthus palmeri); assay: as above; details: 10 days, 0 = no effect, 100 = complete control
Outline: as §1

[20] = tested on: oat, wild (wild oat, Avena fatua); assay: as above; details: 10 days, 0 = no effect, 100 = complete control
Outline: as §1

soybean (Glycine max) [21] = assay: as above; details: 10 days, 0 = no effect, 100 = complete control
Outline: as §1

[22] = tested on: blackgrass (Alopecurus myosuroides); assay: as above; details: 10 days, 0 = no effect, 100 = complete control
Outline: as §1

kochia (Bassia scoparia) [23] = assay: as above; details: 10 days, 0 = no effect, 100 = complete control
Outline: as §1

[24] = tested on: green foxtail (Setaria viridis); assay: as above; details: 10 days, 0 = no effect, 100 = complete control
Outline: as §1

rice (Oryza sativa) = assay: Test B flooded paddy test, visual plant response rating 0-100; details: 250 g ai/ha, Flood, applied to paddy water, evaluated after 13 days
Outline: (§2)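 Plants were grown to the 2-leaf stage, then pots were flooded to 3 cm above the soil and compound was applied directly to the paddy water, with that depth kept throughout.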

[25] = tested on: sedge, umbrella (small-flower umbrella sedge, Cyperus difformis); assay: as above; details: 250 g ai/ha, Flood, applied to paddy water, evaluated after 13 days
Outline: as §2

[26] = tested on: barnyardgrass (Echinochloa crusgalli); assay: as above; details: 250 g ai/ha, Flood, applied to paddy water, evaluated after 13 days
Outline: as §2

[27] = tested on: ducksalad (Heteranthera limosa); assay: as above; details: 250 g ai/ha, Flood, applied to paddy water, evaluated after 13 days
Outline: as §2

[28] = 31 g ai/ha, greenhouse 10 days, 0 no effect, 100 complete control
[29] = 125 g ai/ha, 10 days, 0 is no effect, 100 is complete control

For `CC1(C(=O)NC2C=CC(C(=O)OCC(F)(F)F)C2)CN(c2cc(Cl)cc(Cl)c2)C(=O)O1` (stereo not shown) [Compound 64], the “Corn plant response rating (0 to 100 scale)” value (corn (Zea mays) [1]; [28]) was 90, the “Corn plant response rating (0 to 100 scale)” value (corn (Zea mays) [1]; [29]) was 100 and the “Ryegrass, Italian plant response rating (0 to 100 scale)” value (“Ryegrass … (0 to 100 scale)” below) [2, 28] was 80. For the same compound, the “Ryegrass … (0 to 100 scale)” value [2, 29] was 90, the “Wheat plant response rating (0 to 100 scale)” value [3, 28] was 90 and the “Wheat plant response rating (0 to 100 scale)” value [3, 29] was 90. The “Galium plant response rating (0 to 100 scale)” value [4, 28] was 80, the “Galium plant response rating (0 to 100 scale)” value [4, 29] was 80 and the “Ragweed plant response rating (0 to 100 scale)” value [5, 28] was 50. For the same compound, the “Ragweed plant response rating (0 to 100 scale)” value [5, 29] was 80, the “Barnyardgrass plant response rating (0 to 100 scale)” value [6, 28] was 100 and the “Barnyardgrass plant response rating (0 to 100 scale)” value [6, 29] was 100. For the same compound, the “Amaranth, Palmer / Pigweed, Palmer plant response rating (0 to 100 scale)” value [7, 28] was 90, the “Amaranth, Palmer / Pigweed, Palmer plant response rating (0 to 100 scale)” value [7, 29] was 90 and the “Oat, Wild plant response rating (0 to 100 scale)” value (“Oat … (0 to 100 scale)” for short) [8, 28] was 90. For the same compound, the “Oat … (0 to 100 scale)” value [8, 29] was 90, the “Horseweed plant response rating (0 to 100 scale)” value [9, 28] was 50 and the “Horseweed plant response rating (0 to 100 scale)” value [9, 29] was 80. The “Soybean plant response rating (0 to 100 scale)” value (soybean (Glycine max) [10]; [28]) was 80, the “Soybean plant response rating (0 to 100 scale)” value (soybean (Glycine max) [10]; [29]) was 90 and the “Blackgrass plant response rating (0 to 100 scale)” value [11, 28] was 90. The “Blackgrass plant response rating (0 to 100 scale)” value [11, 29] was 90, the “Kochia plant response rating (0 to 100 scale)” value (kochia (Bassia scoparia) [12]; [28]) was 80 and the “Kochia plant response rating (0 to 100 scale)” value (kochia (Bassia scoparia) [12]; [29]) was 80. For the same compound, the “Foxtail, Green plant response rating (0 to 100 scale)” value (shortened to “Foxtail … (0 to 100 scale)”) [13, 28] was 90, the “Foxtail … (0 to 100 scale)” value [13, 29] was 90 and the “Corn plant response rating (0-100)” value (corn (Zea mays) [14]; 31 g ai/ha) was 0. The “Corn plant response rating (0 to 100 scale)” value (corn (Zea mays) [14]; 125 g ai/ha) was 80, the “Ryegrass, Italian plant response rating (0-100)” value ([15]; 31 g ai/ha) was 50 and the “Ryegrass … (0 to 100 scale)” value ([15]; 125 g ai/ha) was 90. For the same compound, the “Wheat plant response rating (0-100)” value ([16]; 31 g ai/ha) was 60, the “Wheat plant response rating (0 to 100 scale)” value ([16]; 125 g ai/ha) was 90 and the “Ragweed plant response rating (0-100)” value ([17]; 31 g ai/ha) was 0. The “Ragweed plant response rating (0 to 100 scale)” value ([17]; 125 g ai/ha) was 80, the “Barnyardgrass plant response rating (0-100)” value ([18]; 31 g ai/ha) was 80 and the “Barnyardgrass plant response rating (0 to 100 scale)” value ([18]; 125 g ai/ha) was 90. The “Amaranth, Palmer plant response rating (0-100)” value ([19]; 31 g ai/ha) was 100, the “Amaranth, Palmer plant response rating (0 to 100 scale)” value ([19]; 125 g ai/ha) was 100 and the “Oat, Wild plant response rating (0-100)” value ([20]; 31 g ai/ha) was 20. The “Oat … (0 to 100 scale)” value ([20]; 125 g ai/ha) was 50, the “Soybean plant response rating (0-100)” value (soybean (Glycine max) [21]; 31 g ai/ha) was 0 and the “Soybean plant response rating (0 to 100 scale)” value (soybean (Glycine max) [21]; 125 g ai/ha) was 40. The “Blackgrass plant response rating (0-100)” value ([22]; 31 g ai/ha) was 20, the “Blackgrass plant response rating (0 to 100 scale)” value ([22]; 125 g ai/ha) was 70 and the “Kochia plant response rating (0-100)” value (kochia (Bassia scoparia) [23]; 31 g ai/ha) was 50. For the same compound, the “Kochia plant response rating (0 to 100 scale)” value (kochia (Bassia scoparia) [23]; 125 g ai/ha) was 90, the “Foxtail, Green plant response rating (0-100)” value ([24]; 31 g ai/ha) was 70 and the “Foxtail … (0 to 100 scale)” value ([24]; 125 g ai/ha) was 90. The “Plant response rating, Rice (0 to 100 scale, 0 is no effect and 100 is complete control)” value (rice (Oryza sativa)) was 15, the “Plant response rating, Sedge, Umbrella (0 to 100 scale, 0 is no effect and 100 is complete control)” value [25] was 75 and the “Plant response rating, Barnyardgrass (0 to 100 scale, 0 is no effect and 100 is complete control)” value [26] was 50. For the same compound, the “Plant response rating, Ducksalad (0 to 100 scale, 0 is no effect and 100 is complete control)” value [27] was 90.
